Results published in patent US20170037111A1, “Novel peptides and combination of peptides for use in immunotherapy against ovarian cancer and other cancers” (immatics biotechnologies GmbH, priority 2015, published 2017).

Assays:
CD8+ T cells = assay: In vitro T-cell priming (immunogenicity) with aAPCs loaded with peptide/MHC and anti-CD28, pMHC multimer readout; assay type: cell-based, human; conditions: for Wells positive [%]: in vitro immunogenicity, HLA-A*02 restricted peptides, positive wells among evaluable
Source text: In order to obtain information regarding the immunogenicity of the TUMAPs of the present invention, the inventors performed investigations using an in vitro T-cell priming assay based on repeated stimulations of CD8+ T cells with artificial antigen presenting cells (aAPCs) loaded with peptide/MHC complexes and anti-CD28 antibody.
In order to perform in vitro stimulations by artificial antigen presenting cells loaded with peptide-MHC complex (pMHC) and anti-CD28 antibody, the inventors first isolated CD8+ T cells from fresh HLA-A*02 leukapheresis products via positive selection using CD8 microbeads (Miltenyi Biotec, Bergisch-Gladbach, Germany) of healthy donors obtained from the University clinics Mannheim, Germany, after informed consent.
PBMCs and isolated CD8+ lymphocytes were incubated in T-cell medium (TCM) until use consisting of RPMI-Glutamax (Invitrogen, Karlsruhe, Germany) supplemented with 10% heat inactivated human AB serum (PAN-Biotech, Aidenbach, Germany), 100 U/ml Penicillin/100 μg/ml Streptomycin (Cambrex, Cologne, Germany), 1 mM sodium pyruvate (CC Pro, Oberdorla, Germany), 20 μg/ml Gentamycin (Cambrex). 2.5 ng/ml IL-7 (PromoCell, Heidelberg, Germany) and 10 U/ml IL-2 (Novartis Pharma, Nürnberg, Germany) were also added to the TCM at this step.
Generation of pMHC/anti-CD28 coated beads, T-cell stimulations and readout was performed in a highly defined in vitro system using four different pMHC molecules per stimulation condition and 8 different pMHC molecules per readout condition.
The purified co-stimulatory mouse IgG2a anti human CD28 Ab 9.3 (Jung et al., 1987) was chemically biotinylated using Sulfo-N-hydroxysuccinimidobiotin as recommended by the manufacturer (Perbio, Bonn, Germany). Beads used were 5.6 μm diameter streptavidin coated polystyrene particles (Bangs Laboratories, Illinois, USA).
pMHC used for positive and negative control stimulations were A*0201/MLA-001 (peptide […] (SEQ ID NO. 664) from modified Melan-A/MART-1) and A*0201/DDX5-001 ([…] from DDX5, SEQ ID NO. 665), respectively.
800.000 beads/200 μl were coated in 96-well plates in the presence of 4×12.5 ng different biotin-pMHC, washed and 600 ng biotin anti-CD28 were added subsequently in a volume of 200 μl. Stimulations were initiated in 96-well plates by co-incubating 1×10^6 CD8+ T cells with 2×10^5 washed coated beads in 200 μl TCM supplemented with 5 ng/ml IL-12 (PromoCell) for 3 days at 37° C. Half of the medium was then exchanged by fresh TCM supplemented with 80 U/ml IL-2 and incubating was continued for 4 days at 37° C. This stimulation cycle was performed for a total of three times. For the pMHC multimer readout using 8 different pMHC molecules per condition, a two-dimensional combinatorial coding approach was used as previously described (Andersen et al., 2012) with minor modifications encompassing coupling to 5 different fluorochromes. Finally, multimeric analyses were performed by staining the cells with Live/dead near IR dye (Invitrogen, Karlsruhe, Germany), CD8-FITC antibody clone SK1 (BD, Heidelberg, Germany) and fluorescent pMHC multimers. For analysis, a BD LSRII SORP cytometer equipped with appropriate lasers and filters was used. Peptide specific cells were calculated as percentage of total CD8+ cells. Evaluation of multimeric analysis was done using the FlowJo software (Tree Star, Oregon, USA). In vitro priming of specific multimer+CD8+ lymphocytes was detected by comparing to negative control stimulations.
Exemplary flow cytometry results after TUMAP-specific multimer staining for two peptides of the invention are shown in FIG. 3 together with corresponding negative controls.

HLA-A*02:01 = HLA-A*02:01 (Homo sapiens, UniProt P04439, D140Y/D185E/D98H/E176V/E277Q/G131W/G231S/I119V/I121R/I166T/I218V/L300P/L318F/N151K/N90K/P208A/P217A/Q86G/Q94H/R138H/R169H/T345S); assay: MHC binding assay (UV-ligand exchange, β2m ELISA, peptide exchange yield); conditions: MHC class I binding score; binding to HLA-A*02:01 ranged by peptide exchange yield (UV-ligand exchange, β2m ELISA)
Procedure, shortened: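 Peptide–HLA-A*02:01 complexes were formed by UV-mediated exchange of a UV-cleavable ligand for the test peptide. Exchange yield was measured by capturing complexes on streptavidin, detecting with HRP anti-β2m antibody (1 h, 37°C) and reading TMB absorbance at 450 nm.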

Peptide exchange (HLA-A*02:01)	Substance	Wells positive [%] (CD8+ T cells)	donors (CD8+ T cells; in vitro immunogenicity of HLA class I peptides, percentage of positive donors)	wells (CD8+ T cells; in vitro immunogenicity of HLA class I peptides, percentage of positive wells)
″++++″ (≧75% = ++++)	7 (SLVGLLLYL; listed as Homo sapiens) [compound 7]	″++″ (20%-49% = ++)		
″+++″ (≧50% = +++)	166 (YLNHLEPPV; listed as Homo sapiens) [compound 166]	″++++″ (> = 70% = ++++)		
″+++″ (≧50% = +++)	113 (GLLPTPLFGV; listed as Homo sapiens) [compound 113]	″+″ (<20% = +)		
″++++″ (≧75% = ++++)	395 (ALALGGIAVV; listed as Homo sapiens) [compound 395]	″+++″ (50%-69% = +++)		
″+++″ (≧50% = +++)	79 (SLFIGEKAVLL; listed as Homo sapiens) [compound 79]	″+″ (<20% = +)		
″+++″ (≧50% = +++)	2 (SLLEADPFL; listed as Homo sapiens) [compound 2]	″+″ (<20% = +)		
″++″ (≧20% = ++)	36 (YVLEDLEVTV; listed as Homo sapiens) [compound 36]	″+″ (<20% = +)		
″+++″ (≧50% = +++)	49 (YLPAVFEEV; listed as Homo sapiens) [compound 49]	″++″ (20%-49% = ++)		
″++″ (≧20% = ++)	603 (FLIEPEHVNTV; listed as Homo sapiens) [compound 603]	″+″ (<20% = +)		
″+++″ (≧50% = +++)	215 (QLINHLHAV; listed as Homo sapiens) [compound 215]	″++″ (20%-49% = ++)		
″+++″ (≧50% = +++)	48 (ALAELYEDEV; listed as Homo sapiens) [compound 48]	″+″ (<20% = +)		
″++″ (≧20% = ++)	511 (FLDPYCSASV; listed as Homo sapiens) [compound 511]	″+″ (<20% = +)		
″++″ (≧20% = ++)	157 (SLNDEVPEV; listed as Homo sapiens) [compound 157]	″+++″ (50%-69% = +++)		
″+++″ (≧50% = +++)	384 (ILFANPNIFV; listed as Homo sapiens) [compound 384]	″+″ (<20% = +)		
″+++″ (≧50% = +++)	150 (RLWEEGEELEL; listed as Homo sapiens) [compound 150]	″+″ (<20% = +)		
″+++″ (≧50% = +++)	283 (ALYIGDGYVIHLA; listed as Homo sapiens) [compound 283]		+++ (50%-69% = +++)	+ (<20% = +)
″+++″ (≧50% = +++)	446 (QLIPALAKV; listed as Homo sapiens) [compound 446]	″++″ (20%-49% = ++)		
″+++″ (≧50% = +++)	40 (TLLVKVFSV; listed as Homo sapiens) [compound 40]	″++″ (20%-49% = ++)		
″+++″ (≧50% = +++)	443 (GLWEIENNPTV; listed as Homo sapiens) [compound 443]	″+″ (<20% = +)		
″++++″ (≧75% = ++++)	56 (KLYEGIPVLL; listed as Homo sapiens) [compound 56]	″+″ (<20% = +)		
″++″ (≧20% = ++)	319 (SLEPQIQPV; listed as Homo sapiens) [compound 319]	″+″ (<20% = +)		

Peptide exchange (HLA-A*02:01)	Substance	Wells positive [%] (CD8+ T cells)	donors (CD8+ T cells; in vitro immunogenicity of HLA class I peptides, percentage of positive donors)	wells (CD8+ T cells; in vitro immunogenicity of HLA class I peptides, percentage of positive wells)
″++″ (≧20% = ++)	242 (AIAYILQGV; listed as Homo sapiens) [compound 242]	″+++″ (50%-69% = +++)		
″++++″ (≧75% = ++++)	19 (FMVDNEAIYDI; listed as Homo sapiens) [compound 19]	″++″ (20%-49% = ++)		
″+++″ (≧50% = +++)	454 (KLPPPPPQA; listed as Homo sapiens) [compound 454]	″++″ (20%-49% = ++)		
″+++″ (≧50% = +++)	17 (GLLPGDRLVSV; listed as Homo sapiens) [compound 17]	″++″ (20%-49% = ++)		
″+++″ (≧50% = +++)	152 (ILFEDIFDV; listed as Homo sapiens) [compound 152]	″++″ (20%-49% = ++)		
″+++″ (≧50% = +++)	489 (KMWEELPEVV; listed as Homo sapiens) [compound 489]	″+″ (<20% = +)		
″++″ (≧20% = ++)	191 (LLQEGQALEYV; listed as Homo sapiens) [compound 191]	″+++″ (50%-69% = +++)		
″++″ (≧20% = ++)	499 (KIFDIDEAEEGV; listed as Homo sapiens) [compound 499]	″+″ (<20% = +)		
″+++″ (≧50% = +++)	38 (FLLEDDIHVS; listed as Homo sapiens) [compound 38]	″+″ (<20% = +)		
″+++″ (≧50% = +++)	247 (VLLPNDLLEKV; listed as Homo sapiens) [compound 247]	″+″ (<20% = +)		
″+++″ (≧50% = +++)	11 (KIFEMLEGV; listed as Homo sapiens) [compound 11]	″+″ (<20% = +)		
″++++″ (≧75% = ++++)	60 (SLTIDGIYYV; listed as Homo sapiens) [compound 60]	″++++″ (> = 70% = ++++)		
″+++″ (≧50% = +++)	463 (SLVESHLSDQLTL; listed as Homo sapiens) [compound 463]	″++″ (20%-49% = ++)		
″+++″ (≧50% = +++)	5 (HLTEVYPEL; listed as Homo sapiens) [compound 5]	″+++″ (50%-69% = +++)		
″+++″ (≧50% = +++)	199 (ALQDVPLSSV; listed as Homo sapiens) [compound 199]	″+″ (<20% = +)		
″+++″ (≧50% = +++)	198 (KTINKVPTV; listed as Homo sapiens) [compound 198]	″++″ (20%-49% = ++)		
″++++″ (≧75% = ++++)	8 (FTLGNVVGMYL; listed as Homo sapiens) [compound 8]	″+″ (<20% = +)		
″++++″ (≧75% = ++++)	61 (FLQGYQLHL; listed as Homo sapiens) [compound 61]	″++″ (20%-49% = ++)		
″++″ (≧20% = ++)	141 (YLDFSNNRL; listed as Homo sapiens) [compound 141]	″+″ (<20% = +)		
″++++″ (≧75% = ++++)	460 (AMLEKNYKL; listed as Homo sapiens) [compound 460]	″+″ (<20% = +)		
″++++″ (≧75% = ++++)	3 (SLASKLTTL; listed as Homo sapiens) [compound 3]	″+″ (<20% = +)		
